The subject of one data set is γ globin gene. Put plainly: γ globin gene induction by relative quantitative RT-PCR. Type of data set: cell-based, human. The settings on record: for EC (μM) induction of HU IC50 (2.3 fold): concentration inducing γ globin gene expression 2.3-fold, primary human erythroid cells; for γ globin induction (IC50): Table 3, γ globin mRNA induction fold at the compound's IC50, 3 days. As to the method:
(§1) After 3 days of drug-treatment, the total RNA was extracted by RNA Spin mini kit (Ge-Healthcare) and reverse-transcription was performed by using superscript II (Invitrogen) followed the manufactors instruction. Quantitative PCR was performed on LightCycler with using STBR green master mix followed the manufactors instruction (Roche). The absolute quantitative RT-PCR was calculated by the standard curve with supplying a known copy number of plasmids. The relative quantitative RT-PCR was normalized to the expression levels of the β-actin and compared to the mock control.
To search for new agents, which are capable of inducing the expression of γ globin, a series of naphthalimide derivatives with various substituent(s) on the naphthalene ring and the heterocyclic N-atom (A1-A14, B1-B4, C1-C5, D1, and E1-E3, FIG. 2) were synthesized. These derivatives were subjected to evaluating the γ globin induction abilities in differentiated peripheral blood mononuclear cells (PBMCs). The PBMCs isolated from the peripheral blood of donors were expanded and differentiated for a total of 14 days in a two-phase liquid culture. The resulted primary erythoid cells were then treated with different dosages of naphthalimide derivatives individually for another 3 days. The expression levels of the endogenous γ globin gene were estimated by relative quantitative RT-PCR and the proliferation rates of these cells were examined by AlamarBlue cell viability assay. […]; 2-4.5-folds induction of the γ globin gene expression in the compounds-treated cells (FIG. 3).

Data set [1] concerns primary human erythroid cells. Put plainly: AlamarBlue cell viability / proliferation assay. The following applies: 3 days. On the technique in general: Resazurin is reduced to fluorescent resorufin, in cell work by metabolically active cells.
Data set [2] in a line: solubility in DMSO and H2O. Type of data set: physicochemical. The following applies: for water-solubility (in words): comparison.
The next data set concerns ε globin. As to the kind of experiment: absolute quantitative RT-PCR, proportion of ε globin mRNA. It counts as cell-based. The settings on record: primary human erythroid cells, at IC50, 3 days; mock 0.0%. On the procedure: as §1
(§2) To evaluate the specificity of S51021, SS-2394, HU, and NaB in mediating globin genes activation, the amounts of individual P3-liked globin mRNAs were measured by absolute quantitative RT-PCR.
(§3) The primary human erythroid cells were treated with HU (145.9 μM), NaB (221.6 μM), S51021 (21.8 μM) or SS2394 (2.3 μM) for 3 days, and the expression levels of each globin mRNA were estimated by absolute quantitative RT-PCR analysis. The proportions of individual 3-like globin chains among the total 3-like globin mRNA are shown. Data are presented as the mean±SEM, N=3.

A further data set deals with β globin. Put plainly: absolute quantitative RT-PCR, proportion of β globin mRNA. It counts as cell-based. The settings on record: primary human erythroid cells, at IC50, 3 days; mock 88.8%; listed as SS-2394, hydrochloride. As to the method:
as §1, §2, §3

The next data set has as its system δ globin. Put plainly: absolute quantitative RT-PCR, proportion of δ globin mRNA. Type of data set: cell-based. The following applies: primary human erythroid cells, at IC50, 3 days; mock 3.3%. As to the method: as §1, §2, §3
Data set [3] can be described thus: stability observed during biological evaluation. Type of data set: physicochemical. The following applies: deaminated or converted into C6-hydroxy derivative. The source says: To optimize the biological activity and reduce the cytotoxicity of SS-2394 by structural modification, the core structure of naphthalimide (I) was modified by alternating the carbonyl function of benzo[de]isoquinoline-1,3(2H)-dione; reducing the carbonyl function to hydroxyl derivatives (II), which can be further converted into dehydroxylated derivatives III and IV (Scheme 1). During biological evaluation of SS-2394, it was observed that the C6-amino function in SS-2394 was unstable and can be deaminated or converted into the corresponding C6-hydroxy derivatives. Therefore, various substituent R to the C6 of benzo[de]isoquinolin ring were introduced. The substituent R can be H, NH2, NHCOCH3, NHR′, NR′2; wherein R′ can be a C1 to C5 alkyl group. The new compounds bear a N,N-dimethylaminoethyl hydrophilic side chain, which can form acid salts with various inorganic acids or organic acids. Thus, the compounds are water soluble compounds and are suitable for biological application.

The mark [4] stands for this setting: Table 1a, concentration reducing proliferation rate of primary human erythroid cells by 50%.
The mark [5] stands for this setting: Table 3, primary human erythroid cells, proliferation reduced by 50%.
[6] abbreviates: water, H2O, read-out: solubility H2O.

Structures are written as SMILES. Values after ≈ are worked out from the molar mass of the structure shown. Values joined by “and” are separate entries in the source; they are usually repeats but may differ in a detail not shown here. Equal values may be shown once. Where a name gives a salt, the structure may show the parent alone. Read-outs that look alike come from different tables or passages of the source.

In general, IC50 refers to the concentration at which inhibition is half-maximal. Low readings indicate inhibition by little substance, high ones a need for much substance. The term solubility denotes the dissolved amount per volume that the medium holds.

Regarding `Nc1ccc2c3c(cccc13)C(=O)N(c1ccccc1)C2=O` [Compound E1, N-Phenyl-4-amino-1,8-naphthalimide], the “EC (μM) induction of HU IC50 (2.3 fold)” value with γ globin gene is 2.9 µM. In addition, the IC50 came out at 2200 nM in data set [1] (setting [4]) and 300 nM in data set [1] (setting [5]). For the same compound, the solubility in data set [2] (DMSO, organic solvent or mixture, read-out: solubility DMSO) stood at 10 mM (≈ 2880 µg/mL).

Consider `CN(C)CCN1C(=O)c2cccc3c(N)ccc(c23)C1=O` [Compound E2, N-(2-dimethylamino-ethyl)-4-amino-1,8-naphthalimide hydrochloride], for which the “γ globin induction (IC50)” value with γ globin gene (hydrochloride) is 4.0 fold. The “EC (μM) induction of HU IC50 (2.3 fold)” value in the data set with γ globin gene worked out at 0.8 µM. The “ε globin proportion of total β-like globin mRNA” value with ε globin worked out at 0.5 ± 0.1%. Further, in the data set with β globin, the “β globin proportion of total β-like globin mRNA” value is 82.3% and 82.3 ± 1.1%. For the same compound, in data set [1] (setting [4]), half-maximal inhibition (IC50) required 2300 nM. In addition, the “δ globin proportion of total β-like globin mRNA” value in the data set on δ globin is 5.5 ± 0.4%. The “stability of the C6-amino function” value in data set [3] was “unstable”. Moreover, the “water-solubility (in words)” value in data set [2] (hydrochloride) is listed as “greatly improved water-solubility”; in data set [2] (listed as SS-2394, hydrochloride), “higher water-solubility than that of the parental compound S51021”. Also, the solubility in data set [2] (setting [6]) was above 100 mM.

Turning to `CN(C)CCCN1C(=O)c2cccc3c(N)ccc(c23)C1=O` [Compound E3, N-(3-dimethylamino-propyl)-4-amino-1,8-naphthalimide hydrochloride], in the data set with γ globin gene, the “γ globin induction (IC50)” value is recorded as 2.7 fold and the “EC (μM) induction of HU IC50 (2.3 fold)” value came out at 7.4 µM. In data set [1] (setting [4]), the IC50 amounted to 11200 nM. The IC50 in data set [1] (setting [5]) came out at 11200 nM. Also, in data set [2], the “water-solubility (in words)” value was “greatly improved water-solubility”. Further, the solubility in data set [2] (setting [6]) is above 100 mM.

The record behind these values is US20170290820A1, “METHODS AND COMPOSITIONS FOR TREATING BETA-THALASSEMIA AND SICKLE CELL DISEASE” (Academia Sinica, priority 2013, published 2017).
